In brackets after ≈: the same amount, converted by molar mass.
Target: T1, Alpha-glucosidase (Saccharomyces cerevisiae S288c, UniProt P53341+P38158+P07265)
Assay: Inhibition of Saccharomyces cerevisiae alpha-glucosidase using PNPG as substrate incubated for 30 mins by spectrophotometric assay
Assay type: protein assay

SMILES	IC50 [µM]
C=C(C)/C=C/c1c(OC)c(O)cc2oc3cc4c(c(O)c3c(=O)c12)C=CC(C)(C)O4	34.2
C=C(C)/C=C/c1c(O)cc2oc3cc(O)c(OC)c(CCC(C)(C)O)c3c(=O)c2c1O	29.9
C=C(C)/C=C/c1c(OC)c(O)cc2oc3cc4c(c(O)c3c(=O)c12)C=C(O)C(C)(C)O4	31.7
C=C(C)/C=C/c1c(OC)cc2c(c1O)Cc1cccc(O)c1O2	58.5
C=C(C)C1Cc2c(c(O)cc3oc4cc(O)c(CC=C(C)C)c(O)c4c(=O)c23)O1 (stereo not drawn) [MANGOSTENONE G]	45
C=C(C)/C=C/c1c(OC)cc2c(c1O)Cc1c(O)ccc(O)c1O2	50.5
C=C(C)/C=C/c1ccc2oc3c(O)cc(OC)c(CC=O)c3c(=O)c2c1O	63.5

Target: T1, Alpha-glucosidase
Assay: Inhibition of Saccharomyces cerevisiae alpha-glucosidase using pNPG as preincubated for 15 mins followed by substrate addition and measured after 30 mins by spectroscopic analysis

SMILES	IC50 [µM]
COc1c(OC)c(O)c2c(=O)c3c(O[C@H]4O[C@@H](CO[C@H]5OC[C@@H](O)[C@H](O)[C@H]5O)[C@H](O)[C@H](O)[C@@H]4O)ccc(OC)c3oc2c1OC	> 1000
COc1ccc(O)c2c(=O)c3c(O[C@H]4O[C@@H](CO)[C@H](O[C@H]5O[C@@H](CO)[C@H](O)[C@H](O)[C@@H]5O)[C@H](O)[C@@H]4O)cc(O)c(OC)c3oc12	258
COc1ccc(O)c2c(=O)c3c(O[C@H]4O[C@@H](CO[C@H]5OC[C@@H](O)[C@H](O)[C@H]5O)[C@H](O)[C@H](O)[C@@H]4O)cc(O)c(OC)c3oc12	417
O=c1c2c(O)cc(O)cc2oc2c(O)ccc(O[C@@H]3O[C@H](CO)[C@@H](O)[C@H](O)[C@H]3O)c12 [NORSWERTIANOLIN]	679
COc1cccc2c(=O)c3c(O)cc(O[C@H]4O[C@@H](CO)[C@H](O)[C@H](O)[C@@H]4O)c(OC)c3oc12	> 1000
COc1ccc(O)c2c(=O)c3c(O[C@H]4O[C@@H](CO[C@@H]5O[C@@H](CO)[C@H](O)[C@H](O)[C@@H]5O)[C@H](O)[C@H](O)[C@@H]4O)cc(O)c(OC)c3oc12	478
COc1ccc(O)c2c(=O)c3c(O[C@H]4O[C@@H](CO)[C@H](O)[C@H](O)[C@@H]4O)cc(O)c(OC)c3oc12	578
COc1c(OC)c(O[C@H]2O[C@@H](CO[C@H]3OC[C@@H](O)[C@H](O)[C@H]3O)[C@H](O)[C@H](O)[C@@H]2O)c2c(=O)c3c(O)ccc(OC)c3oc2c1OC	442
COc1cc(O)c2c(=O)c3c(O[C@H]4O[C@@H](CO[C@H]5OC[C@@H](O)[C@H](O)[C@H]5O)[C@H](O)[C@H](O)[C@@H]4O)ccc(OC)c3oc2c1OC	136
COc1cc(O)c2c(=O)c3c(O[C@@H]4O[C@H](CO)[C@@H](O)[C@H](O)[C@H]4O)ccc(O)c3oc2c1 [SWERTIANOLIN]	389
COc1cc(O[C@H]2O[C@@H](CO[C@H]3OC[C@@H](O)[C@H](O)[C@H]3O)[C@H](O)[C@H](O)[C@@H]2O)c2c(=O)c3c(O)ccc(OC)c3oc2c1OC	142
COc1ccc(O)c2c(=O)c3c(O)cc(O[C@H]4O[C@@H](CO)[C@H](O)[C@H](O)[C@@H]4O)cc3oc12	> 1000

Target: T1, Alpha-glucosidase
Assay: Inhibition of yeast alpha-glucosidase using p-nitrophenyl-alpha-D-glucopyranoside as substrate incubated for 30 mins by spectrophotometric assay
Assay type: protein assay

SMILES	IC50 [µM]
C=C(C)/C=C/c1c(O)cc2oc3cc(O)c(OC)c(C/C=C(\C)CC=C(C)C)c3c(=O)c2c1O	20.7
C=C(C)/C=C/c1c(O)c(OC)c(/C=C/C(=C)C)c2c(=O)c3c(O)c(CC(O)C(=C)C)c(O)cc3oc12 (stereo not drawn)	8.3
COc1c(O)ccc2oc3c4c(c(CC=C(C)C)c(O)c3c(=O)c12)OC(C(C)(O)CCC=C(C)C)C4 (stereo not drawn)	69
COc1c(O)cc2oc3cc(O)c(C/C=C(\C)CO)c(O)c3c(=O)c2c1C/C=C(/C)CC=C(C)C	168.7
C=C(C)/C=C/c1c(OC)c(OC)cc2oc3cc(O)c(CC=C(C)C)c(O)c3c(=O)c12	18.2
C=C(C)/C=C/c1c(OC)c(OC)cc2oc3cc(O)c(CC(O)C(=C)C)c(O)c3c(=O)c12 (stereo not drawn)	94.4
CC1Oc2cc(O)c3c(=O)c4c(O)ccc(O)c4oc3c2C1(C)C (stereo not drawn)	21.2
COc1cc2c(=O)c3c(O)c(C/C=C(\C)CCC=C(C)C)c(O)cc3oc2cc1O [COWAXANTHONE]	44

Target: T1, Alpha-glucosidase
Assay: Inhibition of Saccharomyces cerevisiae alpha-glucosidase assessed as release of p-nitrophenol using pNPG as substrate preincubated for 15 mins followed by substrate addition and measured after 15 mins by plate reader analysis
Assay type: protein assay

SMILES	IC50 [µg/mL]
COc1ccc(O)c2c(=O)c3cc(O)ccc3oc12	27.6 (≈ 107 µM)
COc1ccc2oc3ccc(O)cc3c(=O)c2c1OC	48.5 (≈ 178 µM)
COc1ccc2oc3ccc(O)cc3c(=O)c2c1	77.3 (≈ 319 µM)
COc1cc(OC)c2c(=O)c3c(O)c(OC)ccc3oc2c1O	59 (≈ 185 µM)

Now from value to compound:

IC50 [µg/mL]	SMILES
7.6 (≈ 27.7 µM)	COc1c(O)cc2oc3ccc(O)cc3c(=O)c2c1O
13.2 (≈ 45.8 µM)	COc1cc(O)c2c(=O)c3cc(O)ccc3oc2c1OC
12.8 (≈ 46.7 µM)	COc1c(O)cc(O)c2c(=O)c3cc(O)ccc3oc12
63.4 (≈ 208 µM)	COc1c(O)cc2oc3ccc(O)c(OC)c3c(=O)c2c1O

Target: T1, Alpha-glucosidase
Assay: Inhibition of Saccharomyces cerevisiae alpha-glucosidase using maltose as substrate incubated for 30 mins by spectrophotometric assay
Assay type: protein assay

SMILES	IC50 [µM]
C=C(C)/C=C/c1c(OC)c(O)cc2oc3cc4c(c(O)c3c(=O)c12)C=CC(C)(C)O4	92.2
C=C(C)/C=C/c1c(O)cc2oc3cc(O)c(OC)c(CCC(C)(C)O)c3c(=O)c2c1O	140.2
C=C(C)/C=C/c1c(OC)c(O)cc2oc3cc4c(c(O)c3c(=O)c12)C=C(O)C(C)(C)O4	155.6
C=C(C)/C=C/c1c(OC)cc2c(c1O)Cc1cccc(O)c1O2	> 200
C=C(C)C1Cc2c(c(O)cc3oc4cc(O)c(CC=C(C)C)c(O)c4c(=O)c23)O1 (stereo not drawn) [MANGOSTENONE G]	> 200
C=C(C)/C=C/c1c(OC)cc2c(c1O)Cc1c(O)ccc(O)c1O2	> 200
C=C(C)/C=C/c1ccc2oc3c(O)cc(OC)c(CC=O)c3c(=O)c2c1O	> 200

Target: T1, Alpha-glucosidase
Assay: Inhibition of yeast alpha-glucosidase assessed as release of p-nitrophenol using PNPG as substrate preincubated for 10 mins followed by substrate addition and measured after 35 mins by microplate photometer analysis
Assay type: protein assay

SMILES	IC50 [µM]
C=C(C)/C=C/c1c(O)cc2oc3cc(O)c(OC)c(C/C=C(\C)CC=C(C)C)c3c(=O)c2c1O	10.7
C=C(C)/C=C/c1c(O)cc2oc3c(/C=C/C(=C)C)c(O)c(OC)cc3c(=O)c2c1O	53.5
COc1cc(O)c2c(=O)c3c(C/C=C(\C)CCC=C(C)C)c(OC)c(O)cc3oc2c1	12.4
C=C(C)/C=C/c1c(O)cc2oc3cc(O)c(O)c(C/C=C(\C)CC=C(C)C)c3c(=O)c2c1O	1.7
C=C(C)/C=C/c1cc(O)c(O)c2oc3c(C/C=C(/C)CC=C(C)C)c(OC)cc(O)c3c(=O)c12	7.8
COc1c(O)cc2oc3cc(O)c(C/C=C(\C)CO)c(O)c3c(=O)c2c1C/C=C(/C)CC=C(C)C	28
C=C(C)/C=C/c1c(O)cc(O)c2c(=O)c3c(C/C=C(/C)CC=C(C)C)c(OC)c(O)cc3oc12	14.1
C=C(C)/C=C/c1c(OC)cc(O)c2c(=O)c3ccc(O)c(O)c3oc12	9.4

Target: T1, Alpha-glucosidase
Assay: Inhibition of Saccharomyces cerevisiae alpha-glucosidase assessed as release of p-nitrophenol using pNPG as substrate preincubated for 15 mins followed by substrate addition and measured after 5 mins by spectrophotometric assay
Assay type: protein assay

SMILES	IC50 [µM]
C=C(C)/C=C/[C@]1(C)C=CC2=C(O1)C(CC=C(C)C)=C1O[C@]34C(C(=O)[C@@H]1C2O)[C@@H](OC)[C@@H]1C[C@H]3C(C)(C)O[C@@]4(C/C=C(\C)C(=O)O)C1=O (stereo partly drawn)	108.75
CO[C@@H]1C2C(=O)[C@H]3C(=C(CC=C(C)C)C4=C(C=CC(C)O4)C3O)O[C@@]23[C@H]2C[C@@H]1C(=O)[C@]3(C/C=C(\C)C(=O)O)OC2(C)C (stereo partly drawn)	136.35
CC(C)=CCC/C(C)=C/Cc1c(C)c(CC=C(C)C)c2c(c1O)C(=O)C1=C[C@@H]3C[C@H]4C(C)(C)O[C@@](CC=C(C)C)(C3=O)[C@@]14O2	> 300
CC(C)=CCC1=C2O[C@]34C(=C[C@@H]5C[C@H]3C(C)(C)O[C@@]4(CC=C(C)C)C5=O)C(=O)[C@@H]2C(O)C2=C1OC(C)C=C2 (stereo partly drawn)	140.95
C=C(C)/C=C/[C@@]1(C)C=CC2=C(O1)C(CC=C(C)C)=C1O[C@]34C(=C[C@@H]5C[C@H]3C(C)(C)O[C@@]4(CC=C(C)C)C5=O)C(=O)[C@@H]1C2O (stereo partly drawn)	> 300
C=C(C)/C=C/[C@@]1(C)C=CC2=C(O1)C(CC=C(C)C)=C1O[C@]34C(C(=O)[C@@H]1C2O)[C@@H](OC)[C@@H]1C[C@H]3C(C)(C)O[C@@]4(C/C=C(\C)C(=O)O)C1=O (stereo partly drawn)	282.7
C=C(C)/C=C/[C@@]1(C)C=CC2=C(O1)C(CC=C(C)C)=C1O[C@]34C(C(=O)[C@@H]1C2O)[C@@H](OCC)[C@@H]1C[C@H]3C(C)(C)O[C@@]4(C/C=C(\C)C(=O)O)C1=O (stereo partly drawn)	> 300
C=C(C)/C=C/[C@]1(C)C=CC2=C(O1)C(CC=C(C)C)=C1O[C@]34C(C(=O)[C@@H]1C2O)[C@@H](OCC)[C@@H]1C[C@H]3C(C)(C)O[C@@]4(C/C=C(\C)C(=O)O)C1=O (stereo partly drawn)	111.8
C=C(C)/C=C/[C@]1(C)C=CC2=C(O1)C(CC=C(C)C)=C1O[C@]34C(=C[C@@H]5C[C@H]3C(C)(C)O[C@@]4(CC=C(C)C)C5=O)C(=O)[C@@H]1C2O (stereo partly drawn)	209.2
C=C(C)C1CCC2(C)CC1c1c(O)c3c(c(CC=C(C)C)c1O2)O[C@]12C(=C[C@@H]4C[C@H]1C(C)(C)O[C@@]2(C/C=C(\C)C(=O)O)C4=O)C3=O (stereo partly drawn)	> 300
CC(C)=CCC1=C2O[C@]34C(C[C@@H]5C[C@H]3C(C)(C)O[C@@]4(C/C=C(\C)C(=O)O)C5=O)C(=O)[C@@H]2C(O)C2=C1OC(C)C=C2 (stereo partly drawn)	> 300
C=C(C)/C=C/C1(C)C=CC2=C(O1)C(CC=C(C)C)=C1O[C@]34C(C(=O)[C@@H]1C2O)[C@@H](O)[C@@H]1C[C@H]3C(C)(C)O[C@@]4(C/C=C(\C)C(=O)O)C1=O (stereo partly drawn)	194.7
CC(C)=CCC/C(C)=C/Cc1c(C)c(CC=C(C)C)c2c(c1O)C(=O)C1=C[C@@H]3C[C@H]4C(C)(C)O[C@@](C/C=C(\C)C(=O)O)(C3=O)[C@@]14O2	> 300
